From patent US20230234936A1, “COMPOUND FOR TARGETING AND DEGRADING PROTEIN, AND PREPARATION METHOD THEREFOR AND USE THEREOF” (SHANGHAI LEADINGTAC PHARMACEUTICAL CO., LTD., priority 2020, published 2023)

What was measured:
[1] = target: T1, IRAK4 protein in THP-1 cells (Homo sapiens, UniProt Q9NWZ3); test: Degradation of IRAK4 in THP-1 cells (Western blot); assay type: cell-based; conditions: 24 hours, compound 1-3000 nM
T1 construct: endogenous in cells; host or cells: THP-1
T1 sequence (Q9NWZ3 1-460): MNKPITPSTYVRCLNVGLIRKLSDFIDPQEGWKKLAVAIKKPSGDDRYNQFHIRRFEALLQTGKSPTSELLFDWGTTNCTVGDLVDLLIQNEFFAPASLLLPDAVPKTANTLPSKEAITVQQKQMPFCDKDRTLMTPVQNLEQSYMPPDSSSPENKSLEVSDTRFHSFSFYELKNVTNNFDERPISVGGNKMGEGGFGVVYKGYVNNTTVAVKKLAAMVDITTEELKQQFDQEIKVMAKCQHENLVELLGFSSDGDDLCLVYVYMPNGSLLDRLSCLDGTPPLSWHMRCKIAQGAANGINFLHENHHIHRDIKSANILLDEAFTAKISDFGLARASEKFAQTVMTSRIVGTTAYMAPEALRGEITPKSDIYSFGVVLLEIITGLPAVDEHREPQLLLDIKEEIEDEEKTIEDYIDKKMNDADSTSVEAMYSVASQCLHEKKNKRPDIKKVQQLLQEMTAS
Method: Each well of the 24-well cell culture plate was inoculated with 0.95 mL THP-1 cells (stem cell bank of Chinese academy of sciences) with a cell density of 5×10^5 cells/well. The cell plate was placed in a 5% carbon dioxide incubator and cultured overnight at 37° C., then 50 μL compound in dimethyl sulfoxide was added. The final concentration of the compound was in the range of 1-3000 nM. After continuous cultivation for 24 hours, the cells were collected into a 1.5 mL centrifuge tube, centrifuged at 1000 rpm and 4° C. for 5 minutes. Cell precipitation was cleaned twice with 1-DPBS, resuspended cells were lysed with 200 μL lysate (cell lysate was Western and IP cell lysate (Beyotime), supplemented with 1 mM mixture of phenylmethylsulfonyl fluoride and protease inhibitor (Beyotime)), left on ice for 30 minutes, then centrifuged at 14000 g at 4° C. for 10 minutes, and the supernatant was taken to detect IRAK4 protein level by Western blot.
Western blot method: The total protein concentration in the supernatant of cell lysis was determined by BCA protein quantitative kit (Tiangen). According to the concentration of total protein detected by BCA, the supernatant was adjusted to 0.2 μg/μL with PBS and 5× SDS-PAGE protein loading buffer (Beyotime), bathed in water at 100° C. for 10 minutes, then placed in ice bath for 5 minutes, centrifuged at 14000 g and 4° C. for 5 minutes, and then collected as WB loading sample. Prefabricated glue (KeyGEN) was used for protein electrophoresis with a loading amount of 10 μL (total protein 2 μg). After Tris-MOPS-SDS electrophoresis solution (Adamas), 120V constant pressure electrophoresis was performed. After electrophoresis, the protein on the adhesive strip was transferred to PVDF membrane with a constant current of […] for 50 minutes. After the membrane was transferred, the membrane was placed in 1×QuickBlock blocking buffer (Beyotime) and incubated for 30 minutes at room temperature. After blocking, PVDF membranes were incubated with IRAK4 primary antibody (Abcam) overnight at 4°, the membranes were washed with TBST buffer (2.4 g Tris, 8.8 g NaCl, 1.5 mL Tween 20, pH adjusted to 7.4, constant volume to 1 L) for 30 minutes, incubated with secondary antibody (Abcam) for 2 hours at room temperature, finally incubated with Clarity Western ECL Substrate(BIO-RAD) for 5 minutes for luminescence development, chemiluminescence imaging system (Clinx, chemiScope 6200 Touch) for development and protein mapping photography. The protein map was analyzed by Clinx chemiluminescence analysis software for grayscale values. Using the formula: grayscale correction value=(target protein grayscale value/corresponding internal reference grayscale value)×10^3, the grayscale correction value of each sample was calculated. The degradation rate was calculated by comparing with the grayscale correction value of the control group. Furthermore, DC50 and Dmax values of the compound were obtained by the nonlinear curve fitting with the logarithmic concentration-inhibition rate by GraphPad Prism 7.

IRAK4 kinase = target: T2, IRAK4 kinase (Homo sapiens, UniProt Q9NWZ3); test: IRAK4 kinase activity test (KinEASE-STK S1 HTRF kit); assay type: biochemical; conditions: 2.5 nM kinase, 1 μM biotinylated polypeptide substrate, 7 μM ATP, 37° C. 120 min
T2 sequence (Q9NWZ3 1-460): T1 sequence (Q9NWZ3 1-460)
Method: KinEASE-STK S1 serine/threonine kinase kit (Cisbio) was used to detect the inhibitory effect of the compound on IRAK4 kinase activity. The specific method was: the compound was dissolved in dimethyl sulfoxide, and then it was diluted with the buffer solution of the kit by equal gradient to make the final concentration range of the tested compound in the reaction system 10000 nM-0.038 nM, then 2.5 nM kinase, 1 μM biotinylated polypeptide substrate and 7 μM adenosine triphosphate (ATP) were added in sequence and incubated at 37° C. for 120 min. Subsequently, anti-phosphorylated serine/threonine antibody coupled with europium element compound and modified XL665 streptavidin were added to the reaction system to terminate the reaction. After incubating at room temperature for 1 h, the fluorescence intensity of each well at the emission wavelength of 620 nm and 665 nm and the excitation wavelength of 337 nm was determined in HTRF mode on the microplate reader EnVision(PerkinElmer), the ratio value was calculated using the formula Ratio=(665 nm/620 nm)×10^4. By comparing with the fluorescence intensity ratio of the control group, the inhibition rate of the compound at each concentration was calculated, and then the IC50 value of the compound was obtained by fitting the nonlinear curve with the logarithmic concentration-inhibition rate by GraphPad Prism 7.

| Structure (SMILES) | DC50 [1] [nM] | Dmax [1] [%] | IC50 (IRAK4 kinase) [nM] |
| --- | --- | --- | --- |
| COc1ccc(C(=O)N2CCC3(CCC(CCN4CCC(n5cc6cc(NC(=O)c7cccc(C(F)(F)F)n7)c(C(C)(C)O)cc6n5)CC4)CC3)CC2)cc1N1CCC(=O)NC1=O [Example 21, N-(2-(1-(2-(3-(3-(2,4-dioxotetrahydro-pyrimidin-1 (2H)-yl)-4-me-thoxybenzoyl)-3-azaspiro [5.5]undec-9-yl)ethyl)piperidin-4-yl)-6-(2-hydroxyprop-2-yl)-2H-indazol-5-yl)-6-(trifluoro-methyl) pyridinecarbox-amide] | 4 | 90.1 | 18 |
| COc1ccc(C(=O)N2CCC(CCCN3CCC(n4cc5cc(NC(=O)c6cccc(C(F)(F)F)n6)c(C(C)(C)O)cc5n4)CC3)CC2)cc1N1CCC(=O)NC1=O [Example 22, N-(2-(1-(3-(1-(3-(2,4-dioxotetrahydro-pyrimidin-1 (2H)-yl)-4-me-thoxybenzoyl)piperidin-4-yl)propyl)piperidin-4-yl)-6-(2-hydroxyprop-2-yl)-2H-inda-zol-5-yl)-6-(trifluoromethyl) pyridinecarbox-amide] | 16.4 | 94.3 | 11.7 |
| COc1ccc(C(=O)N2CCC(OCCN3CCC(n4cc5cc(NC(=O)c6cccc(C(F)(F)F)n6)c(C(C)(C)O)cc5n4)CC3)CC2)cc1N1CCC(=O)NC1=O [Example 23, N-(2-(1-(2-((1-(3-(2,4-dioxotetrahydro-pyrimidin-1 (2H)-yl)-4-me-thoxybenzoyl)piperidin-4-yl)oxy)ethyl)piperdin-4-yl)-6-(2-hydroxyprop-2-yl)-2H-inda-zol-5-yl)-6-(triflu-oromethyl) pyridinecarbox-amide] | 32.4 | 97.6 | 8.5 |
| CCOc1ccc(C(=O)N2CCC3(CC2)CC(CCN2CCC(n4cc5cc(NC(=O)c6cccc(C(F)(F)F)n6)c(C(C)(C)O)cc5n4)CC2)C3)cc1N1CCC(=O)NC1=O [Example 25] | 0.82 | 98 | 13.7 |
| COc1ccc(C(=O)N2CCC3(CCC(CN4CCC(n5cc6cc(NC(=O)c7cccc(C(F)(F)F)n7)c(C(C)(C)O)cc6n5)CC4)CC3)CC2)cc1N1CCC(=O)NC1=O [Example 33, N-(2-(1-((3-(3-(2-4-dioxotetrahydro-pyrimidin-1 (2H)-yl)-4-me-thoxybenzoyl)-3-azaspiro [5.5]undec-9-yl)methyl)piperdin-4-yl)-6-(2-hydroxyprop-2-yl)-2H-indazol-5-yl)-6-(trifluoro-methyl) pyridinecarbox-amide] | 2.1 | 96.6 | 17.2 |
| CC(C)(O)c1cc2nn(C3CCN(CCC4CCN(C(=O)c5ccc(Cl)c(N6CCC(=O)NC6=O)c5)CC4)CC3)cc2cc1NC(=O)c1cccc(C(F)(F)F)n1 [Example 35] | 8.4 | 95.2 | 10.3 |

More lines, in order of falling DC50 [1], values ahead:

| DC50 [1] [nM] | Dmax [1] [%] | IC50 (IRAK4 kinase) [nM] | Structure (SMILES) |
| --- | --- | --- | --- |
| 3.5 | 96.3 | 13.8 | CC(C)(O)c1cc2nn(C3CCN(CCC4CC5(CCN(C(=O)c6ccc(Cl)c(N7CCC(=O)NC7=O)c6)CC5)C4)CC3)cc2cc1NC(=O)c1cccc(C(F)(F)F)n1 [Example 27] |
| 2.3 | 98.4 | 16 | COc1cc2nn(C3CCN(CC4CCC5(CC4)CCN(C(=O)c4ccc(OC)c(N6CCC(=O)NC6=O)c4)CC5)CC3)cc2cc1NC(=O)c1cccc(C(F)(F)F)n1 [Example 30, N-(2-(1-((3-(3-(2,4-dioxotetrahydro-pyrimidin-1 (2H)-yl)-4-me-thoxybenzoyl)-3-azaspiro[5.5]undec-9-yl)methyl)piperidin-4-yl)-6-methoxy-2H-indazol-5-yl)-6-(tri-fluoromethyl) pyridinecarbox-amide] |
| 1 | 86.9 | 6.5 | COc1ccc(C(=O)N2CCC3(CC2)CC(CCN2CCC(n4cc5cc(NC(=O)c6cccc(C(F)(F)F)n6)c(C(C)(C)O)cc5n4)CC2)C3)cc1N1CCC(=O)NC1=O [Example 26] |
